These results are taken from US20250026778A1 (TIUMBIO CO., LTD., priority 2021, published 2025).

Molecules are shown by their SMILES. Where two headings read alike, the source gives them in different places. Bounds are passed on as bounds.

The target in this assay is T1, his-galectin-3 (Homo sapiens, UniProt P17931).
T1 construct: purchased Abcam
Description: TR-FRET assay (in vitro galectin-3 binding inhibitory activity test). Particulars: compound at 20 μM, 60 nM his-galectin-3, 15 nM biotin-ASF. The gist of the method: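 Compound is premixed with his-galectin-3 (60 nM final), then biotin-ASF (15 nM), Tb anti-His antibody (2 nM) and streptavidin-d2 (20 nM) are added. After at least 3.5 hours at RT in HEPES/NaCl buffer with Tween 20 and BSA, TR-FRET is read at 615/665 nm. DMSO serves as the uninhibited control, ASF omission as background.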

[1] abbreviates: Table 2, read-out: % Inhibitory activity (at 20 μM).
Setting [2] is: Table 1, read-out: % Inhibitory activity (at 20 μM).

T1 sequence (P17931 whole entry): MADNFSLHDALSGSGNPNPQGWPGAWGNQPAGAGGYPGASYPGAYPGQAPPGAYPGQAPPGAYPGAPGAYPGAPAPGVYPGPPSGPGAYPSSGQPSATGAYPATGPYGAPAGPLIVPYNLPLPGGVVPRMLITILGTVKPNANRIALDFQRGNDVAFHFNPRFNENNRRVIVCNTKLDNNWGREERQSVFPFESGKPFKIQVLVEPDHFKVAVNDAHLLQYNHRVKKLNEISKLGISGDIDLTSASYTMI

With `O=C(N[C@@H]1CCO[C@]12O[C@H](CO)[C@H](O)[C@H](n1cc(-c3cc(F)c(F)c(F)c3)nn1)[C@H]2O)c1ccc(Cl)c2ccccc12` [Compound A172, 4-chloro-N-((4R,5S,7R,8R,9S,10R)-8,10-dihydroxy-7-(hydroxymethyl)-9-(4-(3,4,5-trifluorophenyl)-1H-1,2,3-triazol-1-yl)-1,6-dioxaspiro[4.5]decan-4-yl)-1-naphthamide], the inhibition at 20 µM under setting [1] is greater than 75%.

`O=C(N[C@@H]1CCO[C@]12O[C@H](CO)[C@H](O)[C@H](n1cc(-c3cc(F)c(F)c(F)c3)nn1)[C@H]2O)c1cccc(Oc2ccccc2)c1` [Compound A130, N-((4R,5S,7R,8R,9S,10R)-8,10-dihydroxy-7-(hydroxymethyl)-9-(4-(3,4,5-trifluorophenyl)-1H-1,2,3-triazol-1-yl)-1,6-dioxaspiro[4.5]decan-4-yl)-3-phenoxybenzamide]: the inhibition at 20 µM is 50 to 75% under setting [2] and 56.6% (Table 3, found values, read-out: % Inhibitory activity (at 20 μM)).

Consider `O=C(O[C@@H]1[C@@H](n2cc(-c3cc(F)c(F)c(F)c3)nn2)[C@@H](O)[C@@H](CO)O[C@@]12CCCCO2)c1ccccn1` [Compound A57], for which the inhibition at 20 µM (read-out: % Inhibitory activity (at 20 μM), Table 1) lay within 50 to 75%.

As to `O=C(N[C@@H]1CCO[C@]12O[C@H](CO)[C@H](O)[C@H](n1cc(-c3cc(F)c(F)c(F)c3)nn1)[C@H]2O)c1ccc2c(Br)cccc2c1` [Compound A192, 5-bromo-N-((4R,5S,7R,8R,9S,10R)-8,10-dihydroxy-7-(hydroxymethyl)-9-(4-(3,4,5-trifluorophenyl)-1H-1,2,3-triazol-1-yl)-1,6-dioxaspiro[4.5]decan-4-yl)-2-naphthamide], the inhibition at 20 µM under setting [1] fell in the range of 25 to 50%.

For the molecule `OC[C@H]1O[C@]2(OCC[C@H]2Nc2ccccc2)[C@H](O)[C@@H](n2cc(-c3cc(F)c(F)c(F)c3)nn2)[C@H]1O` [Compound A206, (4R,5S,7R,8R,9S,10R)-7-(hydroxymethyl)-4-(phenylamino)-9-(4-(3,4,5-trifluorophenyl)-1H-1,2,3-triazol-1-yl)-1,6-dioxaspiro[4.5]decane-8,10-diol], the inhibition at 20 µM under setting [1] was greater than 75%.

Take `O=C(N[C@@H]1CCO[C@]12O[C@H](CO)[C@H](O)[C@H](n1cc(-c3cc(F)c(F)c(F)c3)nn1)[C@H]2O)c1c[nH]c2cccc(F)c12` [Compound A255, N-((4R,5S,7R,8R,9S,10R)-8,10-dihydroxy-7-(hydroxymethyl)-9-(4-(3,4,5-trifluorophenyl)-1H-1,2,3-triazol-1-yl)-1,6-dioxaspiro[4.5]decan-4-yl)-4-fluoro-1H-indole-3-carboxamide]: under setting [1], the inhibition at 20 µM was greater than 75%.

`O=C(Cc1cccc(Br)c1)N[C@@H]1CCO[C@]12O[C@H](CO)[C@H](O)[C@H](n1cc(-c3cc(F)c(F)c(F)c3)nn1)[C@H]2O` [Compound A151, 2-(3-bromophenyl)-N-((4R,5S,7R,8R,9S,10R)-8,10-dihydroxy-7-(hydroxymethyl)-9-(4-(3,4,5-trifluorophenyl)-1H-1,2,3-triazol-1-yl)-1,6-dioxaspiro[4.5]decan-4-yl)acetamide]: the inhibition at 20 µM under setting [2] is greater than 75%.

Take `O=C(N[C@@H]1CCO[C@]12O[C@H](CO)[C@H](O)[C@H](n1cc(-c3cc(F)c(F)c(F)c3)nn1)[C@H]2O)c1cccc2scnc12` [Compound A194, N-((4R,5S,7R,8R,9S,10R)-8,10-dihydroxy-7-(hydroxymethyl)-9-(4-(3,4,5-trifluorophenyl)-1H-1,2,3-triazol-1-yl)-1,6-dioxaspiro[4.5]decan-4-yl)benzo[d]thiazole-4-carboxamide]: the inhibition at 20 µM under setting [1] is 50 to 75%.

Turning to `O=C(N[C@@H]1CCO[C@]12O[C@H](CO)[C@H](O)[C@H](n1cc(-c3cc(F)c(F)c(F)c3)nn1)[C@H]2O)c1sc2ccccc2c1Br` [Compound A181, 3-bromo-N-((4R,5S,7R,8R,9S,10R)-8,10-dihydroxy-7-(hydroxymethyl)-9-(4-(3,4,5-trifluorophenyl)-1H-1,2,3-triazol-1-yl)-1,6-dioxaspiro[4.5]decan-4-yl)benzo[b]thiophene-2-carboxamide], the inhibition at 20 µM under setting [1] is greater than 75%.
